Source: US8288158B2, “Stem cells modified to facilitate threonine catabolism” (Board of Regents, The University of Texas System, priority 2009, dated 2012)

Columns and labels:
[1] = tested on: 3T3 cells; assay: 3T3 cell growth with 3-HNV; type: cell-based
Protocol: (§1) Instead of the normal, 400 uM level of glycine, threonine-deficient medium was supplemented with 4 mM glycine. ES cells subjected to this threonine-deficient, glycine-enriched medium grew no better than those subjected to the threonine drop out medium itself. It is possible that ES cells are unable to deliver the supplemented glycine to mitochondria in order to feed the glycine cleavage system and folate charging. Alternatively, it is also possible that TDH-mediated production of acetyl-CoA is equally important to the HFB-like metabolic state. This alternative interpretation is consistent with the observation that among all metabolites that decline in abundance most precipitously as a function of the conversion of ES cells into differentiating embryoid bodies, acetyl-CoA was second only to the purine intermediate AICAR. In order to investigate these alternatives, we employed 3-hydroxynorvaline (3-HNV), a synthetic variant of threonine containing an extra carbon atom. It is known that the TDH enzyme can […] this threonine analog, yet instead of producing glycine and acetyl-CoA, catabolism of 3-HNV yields glycine and propionyl-CoA (15). ES cells were cultured in either normal or threonine-deficient medium supplemented with varying levels of 3-HNV. […] The inhibitory effect of 3-HNV was not observed on the growth of HeLa, MEF or 3T3 cells.

[2] = tested on: MEF cells; assay: MEF cell growth with 3-HNV; type: cell-based, mouse
Protocol: as §1

[3] = tested on: morula-staged embryos; assay: Early mouse embryo development (morula to blastocyst) in culture with 3-HNV; type: cell-based
Protocol: The availability of 3-HNV as a cell-permeable threonine analog facilitated experiments using living mouse embryos. Before testing the effects of 3-HNV on early mouse embryo development, in situ hybridization and immunohistochemical staining assays were performed to investigate the expression pattern of both TDH mRNA and TDH enzyme (16). […] Knowing that the ICM represents the in vivo source of ES cells (17), we hypothesized that the early development of mouse embryos might be inhibited by 3-HNV. […] These studies indicate that ICM cells of the early mouse embryo, like cultured mouse ES cells, are critically dependent upon threonine catabolism.
• 1. B. Alberts et al., Molecular Biology of the Cell (Garland Publishing, Inc., New York, ed. March, 2007), pp. 1-1392. • 2. A. G. Smith, Annu. Rev. Cell Dev. Biol. 17, 435 (2001). • 3. B. P. Tu et al., Proc. Natl. Acad. Sci. U.S.A. 104, 16886 (2007). • 4. L. Warren, J. M. Buchanan, J. Biol. Chem. 229, 613 (1957). • H. Weissbach, A. Peterkofsky, B. G. Redfield, H. Dickerman, J. Biol. Chem. 238, 3318 (1963). • 6. E. A. Phear, D. M. Greenberg, J. Am. Chem. Soc. 79, 3737 (1957). • 7. Total RNA was extracted with RNA STAT-60 (Tel-Test) and converted into cDNA with oligo(dT) primer using the SuperScript first-strand synthesis kit (Invitrogen). PCR was performed on an AB 7900HT fast real-time PCR system (Applied Bioscience) using a TDH specific primer pair. • 8. R. A. Dale, Biochim. Biophys. Acta. 544, 496 (1978). • 9. TDH cDNA with an in-frame Flag tag sequence fused to the carboxyl terminus of the enzyme was cloned into mammalian expression vector pcDNA3.1 at EcoR1/Xho1 sites. The resultant vector was transfected into 293T cells using Lipofectamine 2000 reagent (Invitrogen). Stable transformants were selected in media containing 500 μg/ml G418 and characterized by western blotting analysis using anti-Flag antibody (Sigma). To extract mitochondrial protein, cells were homogenized in the buffer containing 10 mM Tris-HCl (pH 7.5), 250 mM sucrose and 2 mM EDTA on ice with a glass pestle douncer. Mitochondria were isolated from homogenates through a two-step differential centrifugation procedure at 600 and 11,000 g for 10 m each at 4° C. Mitochondrial protein was then extracted in 100 mM potassium phosphate buffer (pH 7.4) containing 0.1% NP-40, 10 mM DTT and 1× protease inhibitor cocktail (Sigma). TDH activity was determined by measuring the rate of formation of NADH at 25° C. The assay mixture contained 100 mM Tris-HCl (pH 8.0), 25 mM L-threonine, 5 mM NAD and 25 mM NaCl in a final volume of […] The reaction was initiated by the addition of mitochondrial protein extract, and absorbance of the reaction mixture at 340 nM was recorded continuously on a microplate reader. • 10. […]

[4] = tested on: HeLa cells; assay: HeLa cell growth with 3-HNV; type: cell-based
Protocol: as §1

[5] = tested on: mouse ES cells; assay: ES cell colony formation in normal or threonine-deficient medium with 3-HNV; type: cell-based; settings: varying levels of 3-HNV
Protocol: Instead of the normal, 400 uM level of glycine, threonine-deficient medium was supplemented with 4 mM glycine. ES cells subjected to this threonine-deficient, glycine-enriched medium grew no better than those subjected to the threonine drop out medium itself. It is possible that ES cells are unable to deliver the supplemented glycine to mitochondria in order to feed the glycine cleavage system and folate charging. Alternatively, it is also possible that TDH-mediated production of acetyl-CoA is equally important to the HFB-like metabolic state. This alternative interpretation is consistent with the observation that among all metabolites that decline in abundance most precipitously as a function of the conversion of ES cells into differentiating embryoid bodies, acetyl-CoA was second only to the purine intermediate AICAR. In order to investigate these alternatives, we employed 3-hydroxynorvaline (3-HNV), a synthetic variant of threonine containing an extra carbon atom. […]
• 1. […] TDH activity was determined by measuring the rate of formation of NADH at 25° C. The assay mixture contained 100 mM Tris-HCl (pH 8.0), 25 mM L-threonine, 5 mM NAD and 25 mM NaCl in a final volume of […] The reaction was initiated by the addition of mitochondrial protein extract, and absorbance of the reaction mixture at 340 nM was recorded continuously on a microplate reader. • 10. […]

CCC(O)[C@H](N)C(=O)O (stereo partly drawn) [3-HNV, 3-hydroxynorvaline]
inhibitory effect on cell growth [1]: not observed | inhibitory effect on cell growth [2]: not observed | conversion of morula-staged embryos into cavitated blastocysts ([3]; 100 uM 3-HNV): A more modest degree of inhibition | conversion of morula-staged embryos into cavitated blastocysts ([3]; 300 uM 3-HNV): blocked the conversion of morula-staged embryos into cavitated blastocysts | conversion of morula-staged embryos into cavitated blastocysts ([3]; 1 mM 3-HNV): blocked the conversion of morula-staged embryos into cavitated blastocysts | embryo development with threonine supplementation ([3]; 1 mM 3-HNV, medium supplemented by 4 mM threonine): Complete rescue of normal development | inhibitory effect on cell growth [4]: not observed | ES cell colony formation ([5]; normal culture medium): inhibited ES cell colony formation | complementation of the absence of threonine (ES cell colony formation) ([5]; threonine-deficient medium): fail to complement the absence of threonine
